Entries after “also recorded” stand apart in the source; their conditions may differ.
Legend:
[1] = tested on: Arabidopsis thaliana; assay: MOA1 phenotypic profiling of sprayed Arabidopsis (symptom scores, cluster analysis); type: in vivo; conditions: MOA1, in words
[2] = tested on: Arabidopsis thaliana; assay: SOA1 phenotypic analysis of herbicide-treated Arabidopsis (MIC, Tmic, leaf traits); type: in vivo; conditions: for characteristic morphological symptoms: SOA1, in words; for tMic (Dev.): coded score of time to full range of symptoms at MIC; for leafCurling (Dev.) / leafTwisting (Dev.) / leafWidth (Dev.) / matureLeafAnthocyanins (Dev.) / matureLeafChlorosis (Dev.) / matureLeafNecrosis (Dev.) / newLeafAnthocyanins (Dev.) / newLeafChlorosis (Dev.) / newLeafNecrosis (Dev.) / pointedLeaves (Dev.): numeric value standardized to mock treated
[3] = tested on: Arabidopsis thaliana; assay: MOA1 biochemical (metabolite) profiling by LC-MS and GC-MS of sprayed Arabidopsis; conditions: for stress-related (commonly regulated) metabolites: MOA1, 20 min and 1 hour after spraying
[4] = tested on: Arabidopsis; conditions: nitrate addition to N-starved plants; cited from earlier work
[5] = tested on: Saccharomyces cerevisiae wild type strain BY4743; assay: AF1 yeast metabolite analysis by GC-MS and LC-MS after antifungal drug treatment; type: cell-based
[6] = tested on: Arabidopsis thaliana; assay: MOA1 gene expression profiling (22,000 gene arrays) of sprayed Arabidopsis; conditions: for number of gene expression perturbations compared to the other treatments: 1 hr; for No. of Lethal Genes Altered: regulated genes at 1 hr compared with internal list of essential genes
[7] = tested on: Magnaporthe grisea; type: cell-based
[8] = MOA1, early time points / after one hour

## Nc1nc[nH]n1 [Amitrole]
[1]
  observed phenotype: chlorosis and not true bleaching
[2]
  characteristic morphological symptoms: leaf bleaching and leaf enlargement

## CC(C)OC(=O)Nc1cccc(Cl)c1 [Chloropropham]
[1]
  observed phenotype: neither showed a strong herbicidal phenotype
[3]
  stress-related (commonly regulated) metabolites: neither butylate nor chlorpropham treatment resulted in many changes in these commonly regulated metabolites

## O=[N+]([O-])O [Nitrate, nitrate]
[4]
  Nitrate Regulation of Glutamate synthetase: ↑
  Nitrate Regulation of Glutamine synthetase (2): ↑
  Nitrate Regulation of MADs Box (2): ↓
  Nitrate Regulation of MYB transcription factor: ↑
  Nitrate Regulation of Malate Dehydrogenase: ↑
  Nitrate Regulation of Nitrate transporter: ↑
  Nitrate Regulation of Phosphate transporter: ↑
  Nitrate Regulation of Transaldolase: ↑
  Nitrate Regulation of Transketolase: ↑

## CC(C)C1(C)N=C(c2ncccc2C(=O)O)NC1=O (stereo not shown) [Imazapyr]
[2]
  characteristic morphological symptoms: anthocyanin accumulation in the older leaves accompanied by chlorosis of the newly emerging leaves
[3]
  stress-related (commonly regulated) metabolites: Only a few, if any

## CSc1nnc(C(C)(C)C)c(=O)n1N [Metribuzin]
[2]
  characteristic morphological symptoms: rapid and widespread leaf necrosis

## COC(=O)c1cc(Oc2ccc(Cl)cc2Cl)ccc1[N+](=O)[O-] [Bifenox]
[2]
  characteristic morphological symptoms: Necrotic leaf flecks

## O=C(O)c1cc(Oc2ccc(C(F)(F)F)cc2Cl)ccc1[N+](=O)[O-] [Acifluorfen]
[2]
  characteristic morphological symptoms: Necrotic leaf flecks

## OC(Cn1cncn1)(Cn1cncn1)c1ccc(F)cc1F [Fluconazole]
[5]; 4-aminobenzoic acid, pLC
  Fold Change: 0
[5]; 4-methylcatechol, nLC
  Fold Change: 0
[5]; 4-methylcatechol, pLC
  Fold Change: 0
[5]; 5hydroxyLtryptophan, nLC
  Fold Change: 0
[5]; 6-benzylaminopurine, nLC
  Fold Change: 0
[5]; 6benzylaminopurine, pLC
  Fold Change: 0
[5]; DL-aminoadipic acid, pLC
  Fold Change: 0.1155
[5]; DLaminoadipic acid, nLC
  Fold Change: 0.443
[5]; abscisic acid, nLC
  Fold Change: 0
[5]; abscisic acid, pLC
  Fold Change: 0
[5]; adenine, nLC
  Fold Change: 0
[5]; adenosine, nLC
  Fold Change: 0
[5]; allantoic acid, pLC
  Fold Change: 0
[5]; anthranilic acid, nLC
  Fold Change: 0
[5]; anthranilic acid, pLC
  Fold Change: 0
[5]; arginine, nLC
  Fold Change: 0.6484
[5]; arginine, pLC
  Fold Change: 0.1179
[5]; argininosuccinate, nLC
  Fold Change: 0
[5]; argininosuccinate, pLC
  Fold Change: 0
[5]; asparagine, GC
  Fold Change: 0.3999
[5]; asparagine, nLC
  Fold Change: 0.3545
[5]; asparagine, pLC
  Fold Change: 0.3192
[5]; aspartic acid, GC
  Fold Change: 0.4337
[5]; aspartic acid, pLC
  Fold Change: 0.214
[5]; aspartic, nLC
  Fold Change: 0.4993
[5]; benzoic acid, nLC
  Fold Change: 0
[5]; biotin, nLC
  Fold Change: 0.3455
[5]; biotin, pLC
  Fold Change: 0
[5]; caffeic acid, nLC
  Fold Change: −0.4711
[5]; caffeine, pLC
  Fold Change: 0
[5]; campesterol, GC
  Fold Change: 0
[5]; catechol, nLC
  Fold Change: 0
[5]; cinnamic acid, nLC
  Fold Change: 0
[5]; citric acid TME, pLC
  Fold Change: 0
[5]; citricanoic/itaconi, nLC
  Fold Change: 0
[5]; citrulline, nLC
  Fold Change: 0
[5]; citrulline, pLC
  Fold Change: 0.08252
[5]; coumaric acid, nLC
  Fold Change: 0
[5]; cytidine, nLC
  Fold Change: −0.7969
[5]; cytidine, pLC
  Fold Change: 0
[5]; cytosine, nLC
  Fold Change: 0
[5]; cytosine, pLC
  Fold Change: 0
[5]; decanoic acid, nLC
  Fold Change: 0.1846
[5]; desmosterol, GC
  Fold Change: 0
[5]; diaminopimelic acid, nLC
  Fold Change: 0
[5]; diaminopimelic acid, pLC
  Fold Change: 0
[5]; dihydrofolic acid, nLC
  Fold Change: 0
[5]; dihydrofolic acid, pLC
  Fold Change: 0
[5]; dipicolinic acid, pLC
  Fold Change: 0
[5]; disaccaride1, GC
  Fold Change: 0.3883
[5]; disaccaride2, GC
  Fold Change: 0.1517
[5]; disaccaride3, GC
  Fold Change: 0.5803
[5]; ergosterol, GC
  Fold Change: 0.948
[5]; estrone, nLC
  Fold Change: 0
[5]; farnesol, nLC
  Fold Change: 0
[5]; folic acid, nLC
  Fold Change: 0
[5]; folic acid, pLC
  Fold Change: 0
[5]; fucosterol, GC
  Fold Change: 6.665
[5]; fumaric/3m2oxobutan, nLC
  Fold Change: 0.6009
[5]; gallic acid, nLC
  Fold Change: 0.5071
[5]; gibberellic, nLC
  Fold Change: 0
[5]; glucosamine6PO4, nLC
  Fold Change: −0.9951
[5]; glucosamine6PO4, pLC
  Fold Change: 0
[5]; glucosamine, pLC
  Fold Change: 0
[5]; glutamate, pLC
  Fold Change: −0.06179
[5]; glutamic/acetylseri, nLC
  Fold Change: 0.3842
[5]; glutamine, GC
  Fold Change: 0.5242
[5]; glutamine/lysine, nLC
  Fold Change: 0.3309
[5]; glutamine/lysine, pLC
  Fold Change: 0.2242
[5]; glutathione, pLC
  Fold Change: −0.05832
[5]; glycanopyrose, GC
  Fold Change: 1.202
[5]; glycerol, GC
  Fold Change: 0.2187
[5]; glycine, GC
  Fold Change: −0.1037
[5]; guanine, nLC
  Fold Change: 0
[5]; guanosine, nLC
  Fold Change: −0.993
[5]; guanosine, pLC
  Fold Change: −0.9981
[5]; hexadecanoic acid, GC
  Fold Change: 0.1343
[5]; histidine, nLC
  Fold Change: 0
[5]; histidine, pLC
  Fold Change: 0
[5]; homogentisic/uric, nLC
  Fold Change: 0
[5]; hydrocortisone, nLC
  Fold Change: 0
[5]; hydrocortisone, pLC
  Fold Change: 0
[5]; hypoxanthine, nLC
  Fold Change: 0.7757
[5]; hypoxanthine, pLC
  Fold Change: 0.1298
[5]; indole3pyruvic acid, nLC
  Fold Change: 0
[5]; inostol/glucos/sorb, nLC
  Fold Change: −0.4744
[5]; iso citric acid, GC
  Fold Change: 0.3923
[5]; isocitric/citric/qu, nLC
  Fold Change: 1.457
[5]; isoleucine, GC
  Fold Change: 0.391
[5]; itaconic acid dimes, pLC
  Fold Change: 0
[5]; jasmonic acid, nLC
  Fold Change: 0
[5]; kinetin, nLC
  Fold Change: 0
[5]; kinetin, pLC
  Fold Change: 0
[5]; lactic acid, nLC
  Fold Change: −0.0439
[5]; lanosterol, GC
  Fold Change: 8.462
[5]; lauric acid, nLC
  Fold Change: 0.3906
[5]; leucine, GC
  Fold Change: 0.3387

## CN(C)C(=O)Nc1ccc(Cl)c(Cl)c1 [Diuron]
[2]
  characteristic morphological symptoms: rapid and widespread leaf necrosis
[2]; SOA1
  tMic (Dev.): 1

## O=C(O)COc1ccc(Cl)cc1Cl [2,4-D]
[2]; SOA1
  tMic (Dev.): 2
  leafCurling (Dev.): 1
  leafTwisting (Dev.): 2
  leafWidth (Dev.): −1
  matureLeafAnthocyanins (Dev.): 1
  matureLeafChlorosis (Dev.): 2
  matureLeafNecrosis (Dev.): 0
  newLeafAnthocyanins (Dev.): 0
  newLeafChlorosis (Dev.): 1
  newLeafNecrosis (Dev.): 0
  pointedLeaves (Dev.): 0
[2]; SOA1, three-week-old plants sprayed with herbicide, classes pictured in FIG. 12
  Symtom Class: 5

## O=C(O)c1ccccc1C(=O)Nc1cccc2ccccc12 [Naptalam]
[6]
  number of gene expression perturbations compared to the other treatments: fewest gene expression perturbations
  No. of Lethal Genes Altered: 3

## O=C(O)CNCP(=O)(O)O [Glyphosate]
[2]
  characteristic morphological symptoms: anthocyanin accumulation in the older leaves accompanied by chlorosis of the newly emerging leaves
[2]; SOA1
  tMic (Dev.): 2
[3]; [8]
  tyrosine level relative to the control: decreased
[7]
  growth of M. grisea with ammonium or glutamine provided: Little growth defect
[7]; 1.0 mg/ml
  growth inhibition and remediation: remediated by inclusion of aromatic amino acids

## CNc1cnn(-c2cccc(C(F)(F)F)c2)c(=O)c1Cl [Norflurazon]
[3]
  stress-related (commonly regulated) metabolites: Only a few, if any

## CCc1cnc(C2=NC(C)(C(C)C)C(=O)N2)c(C(=O)O)c1 (stereo not shown) [Imazethapyr]
[2]
  characteristic morphological symptoms: anthocyanin accumulation in the older leaves accompanied by chlorosis of the newly emerging leaves

## C[n+]1ccc(-c2cc[n+](C)cc2)cc1 [Paraquat]
[2]
  characteristic morphological symptoms: rapid and widespread leaf necrosis
[2]; SOA1
  tMic (Dev.): 2
  leafCurling (Dev.): 2
  leafTwisting (Dev.): 0
  leafWidth (Dev.): −1
  matureLeafAnthocyanins (Dev.): 0
  matureLeafChlorosis (Dev.): 1
  matureLeafNecrosis (Dev.): 4
  newLeafAnthocyanins (Dev.): 0
  newLeafChlorosis (Dev.): 1
  newLeafNecrosis (Dev.): 4
  pointedLeaves (Dev.): 1

## CC(C)N1C(=O)c2ccccc2NS1(=O)=O [Bentazon]
[2]
  characteristic morphological symptoms: rapid and widespread leaf necrosis

## OC(Cn1cncn1)(Cn1cncn1)c1ccc(F)cc1F [Fiuconazole]
[5]; 5hydroxyLtryptophan, pLC
  Fold Change: 0
[5]; adenosine, pLC
  Fold Change: 0

## c1cc[n+]2c(c1)-c1cccc[n+]1CC2 [Diquat]
[2]
  characteristic morphological symptoms: rapid and widespread leaf necrosis
[2]; SOA1
  tMic (Dev.): 2

## COC(=O)NS(=O)(=O)c1ccc(N)cc1 [Asulam]
[6]
  number of gene expression perturbations compared to the other treatments: fewest gene expression perturbations
  No. of Lethal Genes Altered: 5

## CCNc1nc(Cl)nc(NC(C)C)n1 [Atrazine]
[2]
  characteristic morphological symptoms: rapid and widespread leaf necrosis

## COc1nc(C)nc(NC(=O)NS(=O)(=O)c2ccccc2Cl)n1 [Chlorsulfuron]
[6]
  No. of Lethal Genes Altered: 8
[2]
  characteristic morphological symptoms: anthocyanin accumulation in the older leaves accompanied by chlorosis of the newly emerging leaves

## CS(=O)(=O)c1cc(C(F)(F)F)ccc1C(=O)c1cnoc1C1CC1 [Isoxaflutole]
[6]
  No. of Lethal Genes Altered: 15
[3]; MOA1, early time points
  Alpha-tocopherol levels relative to the control: not significantly changed
[3]; [8]
  phenylalanine level relative to the control: up-regulated; also recorded: began to accumulate
  tyrosine level relative to the control: up-regulated; also recorded: began to accumulate

## CCSC(=O)N(CC(C)C)CC(C)C [Butylate]
[1]
  observed phenotype: neither showed a strong herbicidal phenotype
[3]
  stress-related (commonly regulated) metabolites: neither butylate nor chlorpropham treatment resulted in many changes in these commonly regulated metabolites
